# Assay results reported in article PMC5942814 (PLoS ONE, 2018).
# Several values for one entry are separate records, joined by “and”; a condition that tells them apart may be missing. Equal entries are not always repeated. Entries after “also recorded” stand apart in the source; their conditions may differ.
# Legend:
# [1] = Pharmacokinetics of SNF472 administered as an i.v. bolus; format: in vivo, Wistar rats; conditions: for C0: rat plasma phytate, extrapolated concentration at time 0
# Protocol: Blood was collected at 5, 15, 60 and 120 min.
# (§1) Due to the limitations in obtaining many sequential blood samples from rats, blood samples were only acquired from each animal at three of the nine time-points. Consequently, the area under the curves (AUCs) could not be determined for individual animals and mean AUCs were therefore used to assess dose linearity.
# (§2) Following sampling, blood was collected into K3EDTA anticoagulant tubes, centrifuged at 3,500 rpm for 10 min at 4 °C and stored at -80°C pending quantification via UPLC®-MS using the method described by Tur et al.
# [2] = system: cardiovascular calcification in adenine-induced uremic rats; assay: Inhibition of calcification in a rat model of uremia (adenine + α-calcidol); format: in vivo, Wistar rats
# Protocol: as §2
# All rats were treated daily with adenine (600 mg/kg, suspended in 1% carboxymethyl cellulose, administered orally) for the first 10 days to induce uremia and α-calcidol (300 ng/kg in olive oil, administered orally) three times a week from days 11 to 19 to accelerate and homogenize the development of cardiovascular calcification. On day 19, all surviving animals were sacrificed and blood and tissue samples collected. Blood was obtained via heart puncture in anesthetized animals immediately before sacrifice.
# Lyophilized organs were digested using a 1:1 HNO3:HClO4 mixture in a dry bath incubator for 2–4 h at 180°C and subsequently diluted with MilliQ™ water to a final volume of 10 ml. Calcium and phosphorus contents in serum, heart and aorta were quantified via inductively coupled plasma optical emission spectrometry (ICP-OES) (Perkin-Elmer SL, Optima 5300DV spectrometer)[26].
# Alkaline phosphatase (ALP) activity (ref. OSR6103), and creatinine (OSR6178) and urea (ref. OSR6134) levels were determined in serum using the Beckman Coulter assay kit (Brea, CA, USA).
# [3] = Pharmacokinetics of SNF472 administered as a s.c. bolus; format: in vivo, Wistar rats; conditions: rat
# Protocol: as §1, §2
# [4] = system: vitamin D3-induced cardiovascular calcification (progression); assay: Inhibition of calcification progression induced by vitamin D; format: in vivo, Sprague Dawley rats; conditions: 10 and 60 mg/kg s.c. daily
# Protocol: Experiments were performed with 48 male Crl:OF Sprague Dawley rats weighing ± 250 g (Charles River Laboratories International, Inc. L’Arbresle, France) divided into 6 groups. Calcification was induced by 3 consecutive daily s.c. administrations of 100 kIU/kg vitamin D3 (Fort Dodge, Girona, Spain). Four groups were used as controls to evaluate calcification progression throughout the 14 days of study. The animals received daily s.c. injections of vehicle (NaCl 0.9%), starting 5 days after calcification induction. […] Group 1 animals were sacrificed on day 5 to evaluate calcification. Groups 2 and 3 were sacrificed on days 9 and 12, respectively, to follow the progression of calcification in control animals. Groups 4, 5 and 6 were sacrificed on day 14. Blood was obtained via heart puncture in anesthetized animals immediately before sacrifice.
# (§3) Aorta and heart were removed at sacrifice, lyophilized for 24 h and weighed. Lyophilized organs were digested using a 1:1 HNO3:HClO4 mixture in a dry bath incubator for 2–4 h at 180°C and subsequently diluted with MilliQ™ water to a final volume of 10 ml. Calcium and phosphorus contents in serum, heart and aorta were quantified via inductively coupled plasma optical emission spectrometry (ICP-OES) (Perkin-Elmer SL, Optima 5300DV spectrometer)[26].
# [5] = Pharmacokinetics of SNF472 via 4 h i.v. infusion in adenine-induced uremic rats; format: in vivo, Wistar rats; conditions: for AUC(0→t) / Cmax: Day 13 (uremic) rats
# Protocol: (§4) The experiment was performed based on a model described by Terai and co-workers[27]. Uremia was induced in 10 male Wistar rats weighing ± 275 g via 10 daily oral administrations of 600 mg/kg adenine (days 1–10). Two further oral doses of 300 ng/kg α-calcidol were administered on days 11 and 13.
# as §1, §2
# [6] = system: vitamin D3-induced cardiovascular calcification; assay: Prevention of calcification induced by vitamin D; format: in vivo, Sprague Dawley rats
# Protocol: Experiments were performed with 20 male Crl:OF Sprague Dawley rats weighing ± 350 g (Charles River Laboratories International, Inc. L’Arbresle, France). Animals were divided into four groups. […] Calcification was induced by 5 consecutive daily oral administrations of 75 kIU/kg vitamin D3 (Fort Dodge, Girona, Spain), starting on day 3 of treatment. Five sham-treated animals with no calcification induction served as controls. Rats were sacrificed 14 days after induction of calcification, and organs collected. Blood was obtained via heart puncture in anesthetized animals immediately before sacrifice.
# as §3
# [7] = Pharmacokinetics of SNF472 via 4 h i.v. infusion in control rats; format: in vivo, Wistar rats; conditions: for AUC(0→t) / Cmax: Day 1 (control) rats
# Protocol: as §4, §1, §2
# [8] = single i.v. bolus 10 mg/kg, rat
# [9] = 50 mg/kg 4 h i.v. infusion daily, uremic rats
# [10] = 4 h i.v. infusion 10 mg/kg, uremic rats
# [11] = 1 mg/kg i.v. every other day (e.o.d.)
smiles,measurement,setting,value
"O=P([O-])(O)OC1C(OP(=O)([O-])O)C(OP(=O)([O-])O)C(OP(=O)([O-])O)C(OP(=O)([O-])O)C1OP(=O)([O-])O.[Na+].[Na+].[Na+].[Na+].[Na+].[Na+] (centres unmarked) [SNF472, hexasodium salt of myo-inositol hexaphosphate]",AUC(0→t),"[1]; single i.v. bolus 1 mg/kg, rat",3491 ng·h/mL
same,Cl,"[1]; single i.v. bolus 1 mg/kg, rat",4.83 mL/min/kg
same,MRT (0→∞),"[1]; single i.v. bolus 1 mg/kg, rat",99 min
same,C0,[1]; single i.v. bolus 1 mg/kg,36775 ng/mL
same,AUC(0→t),"[1]; single i.v. bolus 5 mg/kg, rat",19234 ng·h/mL
same,MRT (0→∞),"[1]; single i.v. bolus 5 mg/kg, rat",19.8 min
same,C0,[1]; single i.v. bolus 5 mg/kg,84561 ng/mL
same,AUC(0→t),[1]; [8],38752 ng·h/mL
same,MRT (0→∞),[1]; [8],11.4 min
same,C0,[1]; single i.v. bolus 10 mg/kg,156750 ng/mL
same,mortality (animals died),"[2]; 50 mg/kg 4 h i.v. infusion daily, 12 uremic rats per group, 4 died in control group",7 animals
same,inhibition of development of calcification in aorta,[2]; [9],up to 80%
same,mortality vs control group,[2]; [9],no significant differences
same,serum creatinine vs control,[2]; [9],No significant differences
same,serum urea vs control,[2]; [9],No significant differences
same,circulating (serum) phosphorus,"[2]; 50 mg/kg 4 h i.v. infusion daily, uremic rats, control 17.6 mg/dL, not significant",19.9 mg/dL
same,mean serum ALP activity,"[2]; 50 mg/kg 4 h i.v. infusion daily, uremic rats, control 295 U/L, not significant",725 U/L
same,median heart calcium content,"[2]; 50 mg/kg 4 h i.v. infusion daily, uremic rats, control median 1.6 mg/g",0.2 mg/g
same,median aorta calcium content,"[2]; 50 mg/kg 4 h i.v. infusion daily, uremic rats, control median 65.0 mg/g",12.8 mg/g
same,reduction in serum calcium levels,"[2]; 50 mg/kg 4 h i.v. infusion daily, uremic rats, significant vs control",17%
same,"signs of hypocalcemia (dyspnea, muscle spasms, convulsions)","[2]; 50 mg/kg 4 h i.v. infusion, uremic rats",no signs of hypocalcemia
same,circulating phytate levels,"[2]; non-uremic animals (day 0), end of 4 h i.v. infusion 50 mg/kg","~ 150,000 ng/mL"
same,decrease in circulating phytate,"[2]; uremic animals, during and after 4 h of SNF472 infusion",90%
same,AUC(0→t),[3]; single s.c. bolus 10 mg/kg,1633 ng·h/mL
same,Cl/F,[3]; single s.c. bolus 10 mg/kg,3.67 mL/min/kg
same,Cmax,[3]; single s.c. bolus 10 mg/kg,4876 ng/mL
same,MRT (0→∞),[3]; single s.c. bolus 10 mg/kg,28.2 min
same,AUC(0→t),[3]; single s.c. bolus 30 mg/kg,32646 ng·h/mL
same,Cl/F,[3]; single s.c. bolus 30 mg/kg,4.5 mL/min/kg
same,Cmax,[3]; single s.c. bolus 30 mg/kg,61014 ng/mL
same,MRT (0→∞),[3]; single s.c. bolus 30 mg/kg,28.8 min
same,AUC(0→t),[3]; single s.c. bolus 100 mg/kg,139603 ng·h/mL
same,Cl/F,[3]; single s.c. bolus 100 mg/kg,3.5 mL/min/kg
same,Cmax,[3]; single s.c. bolus 100 mg/kg,263264 ng/mL
same,MRT (0→∞),[3]; single s.c. bolus 100 mg/kg,29.4 min
same,serum calcium levels,[4],not significantly affected
same,serum phosphorus levels on day 14 vs control,[4],No differences
same,progression of cardiac calcification,[4]; started 5 days after calcification induction,completely blocked; also recorded: completely inhibited further progression
same,AUC(0→t),[5]; 4 h i.v. infusion 10 mg/kg,3877 ng·h/mL
same,Cmax,"[5]; 4 h i.v. infusion 10 mg/kg, level at 240 min",1877 ng/mL
same,time at which low-level steady state was observed,[5]; [10],60 min
same,time at which maximum levels were reached,[5]; [10],≤ 30 min
same,AUC(0→t),[5]; 4 h i.v. infusion 50 mg/kg,51665 ng·h/mL
same,Cmax,[5]; 4 h i.v. infusion 50 mg/kg,16218 ng/mL
same,inhibition of aorta calcium vs vehicle,[6]; 1 mg/kg i.v. daily,60%
same,inhibition of heart calcium vs vehicle,[6]; 1 mg/kg i.v. daily,74% and 74.4%
same,serum phosphorus,"[6]; 1 mg/kg i.v. daily, control 14.75 mg/dL, significantly increased",18.96 mg/dL
same,mean heart calcium content,"[6]; 1 mg/kg i.v. daily, vitamin D3 75 kIU/kg p.o. x5, vehicle 3.35 mg/g",1.06 mg/g
same,mean aortic calcium content,"[6]; 1 mg/kg i.v. daily, vitamin D3 75 kIU/kg p.o. x5, vehicle 91.1 mg/g",36.8 mg/g
same,serum calcium,"[6]; 1 mg/kg i.v. daily, vs sham (8.72 mg/dL) and vitamin D control (10.50 mg/dL)",statistically significant higher levels than sham and control groups
same,inhibition of aorta calcium vs vehicle,[6]; [11],56.2%
same,inhibition of heart calcium vs vehicle,[6]; [11],70.4%
same,inhibition of CVC in non-uremic rats,"[6]; non-uremic rats, vitamin D3 model",60–70%
same,AUC(0→t),[7]; 4 h i.v. infusion 10 mg/kg,16027 ng·h/mL
same,Cmax,"[7]; 4 h i.v. infusion 10 mg/kg, maximum at 240 min",5548 ng/mL
same,steady state during the infusion period,"[7]; 4 h i.v. infusion 10 mg/kg, control rats",steady state was not achieved
same,AUC(0→t),[7]; 4 h i.v. infusion 50 mg/kg,145212 ng·h/mL
same,Cmax,[7]; 4 h i.v. infusion 50 mg/kg,45141 ng/mL
same,time at which steady state was reached,"[7]; 4 h i.v. infusion 50 mg/kg, control rats",60 min
